Measured values from patent US20260355196A1, “INHIBITORS AND DEGRADERS OF PIP4K PROTEIN” (Larkspur Biosciences, Inc., priority 2023, published 2026).

What follows are compounds tested against T1, PIP4K2C (Homo sapiens, UniProt Q8TBX8) (assay: Enzyme Binding Assay (KINOMEscan): active site-directed competition binding to an immobilized ligand). Conditions: 11-point dose response, duplicate, top concentration 5 micromolar; read-out: Pip4k2c Kd: IC50.
T1 sequence (Q8TBX8 1-421): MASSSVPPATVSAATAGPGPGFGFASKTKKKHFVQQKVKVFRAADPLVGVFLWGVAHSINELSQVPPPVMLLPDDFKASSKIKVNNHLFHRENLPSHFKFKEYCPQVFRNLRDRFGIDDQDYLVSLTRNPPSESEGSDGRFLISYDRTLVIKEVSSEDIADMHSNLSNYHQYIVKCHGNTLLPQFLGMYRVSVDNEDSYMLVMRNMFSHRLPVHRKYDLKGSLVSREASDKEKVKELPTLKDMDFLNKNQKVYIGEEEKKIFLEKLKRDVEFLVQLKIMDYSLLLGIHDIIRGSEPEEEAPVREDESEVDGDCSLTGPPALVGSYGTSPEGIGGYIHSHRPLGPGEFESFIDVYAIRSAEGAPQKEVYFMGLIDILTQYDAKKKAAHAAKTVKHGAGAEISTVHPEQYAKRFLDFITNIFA
Design: purchased Eurofins DiscoverX, San Diego, CA 87-0007-1094
Method in brief: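 Active site-directed competition binding against an immobilized ligand. 11-point dose-response in duplicate, top concentration 5 micromolar; IC50 from a Hill equation fitted by the Levenberg-Marquardt algorithm.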

Row | Structure (SMILES) | IC50 [nM]
1 | CNC(=O)[C@H]1CC[C@H](Nc2ncc(Cl)c(-c3ccc(=O)n(C4CC4)c3)n2)CC1 [Compound 106, trans-(1r,4r)-4-((5-chloro-4-(1-cyclopropyl-6-oxo-1,6-dihydropyridin-3-yl)pyrimidin-2-yl)amino)-N-methylcyclohexane-1-carboxamide] | 500 to 1000
2 | CNC(=O)[C@H]1CC[C@@H](Nc2ncc(Cl)c(-c3cnn(C4CC4)c3)n2)CC1 [Compound 107, cis-(1s,4s)-4-((5-chloro-4-(1-cyclopropyl-1H-pyrazol-4-yl)pyrimidin-2-yl)amino)-N-methylcyclohexane-1-carboxamide] | 500 to 1000
3 | CNC(=O)[C@H]1CC[C@@H](Nc2ncc(Cl)c(-c3cnn(C4CCCCC4)c3)n2)CC1 [Compound 108, cis-(1s,4s)-4-((5-chloro-4-(1-cyclohexyl-1H-pyrazol-4-yl)pyrimidin-2-yl)amino)-N-methylcyclohexane-1-carboxamide] | 1000 to 5000
4 | CC(=O)N1CCC(Nc2ncc(Cl)c(-c3ccn(C4CCCCC4)n3)n2)CC1 [Compound 109, 1-(4-((5-chloro-4-(1-cyclohexyl-1H-pyrazol-3-yl)pyrimidin-2-yl)amino)piperidin-1-yl)ethan-1-one] | 1000 to 5000
5 | CNC(=O)[C@H]1CC[C@H](Nc2ncc(Cl)c(-c3cnn(C4CCCCC4)c3)n2)CC1 [Compound 118, trans-(1r,4r)-4-((5-chloro-4-(1-cyclohexyl-1H-pyrazol-4-yl)pyrimidin-2-yl)amino)-N-methylcyclohexane-1-carboxamide] | < 500
6 | CNC(=O)[C@H]1C[C@H](Nc2ncc(Cl)c(-c3cnn(-c4ccc(=O)[nH]c4)c3)n2)C1 [Compound 119, trans-(1r,3r)-3-((5-chloro-4-(1-(6-oxo-1,6-dihydropyridin-3-yl)-1H-pyrazol-4-yl)pyrimidin-2-yl)amino)-N-methylcyclobutane-1-carboxamide] | < 500
7 | CC(=O)N1CCC(Nc2ncc(Cl)c(-c3cnn(-c4cc[nH]c(=O)c4)c3)n2)CC1 [Compound 120, 4-(4-(2-((1-acetylpiperidin-4-yl)amino)-5-chloropyrimidin-4-yl)-1H-pyrazol-1-yl)pyridin-2(1H)-one] | < 500
8 | CC(=O)N[C@H]1CC[C@H](Nc2ncc(Cl)c(-c3cnn(-c4ccc(F)cc4)c3)n2)CC1 [Compound 121, trans-N-((1r,4r)-4-((5-chloro-4-(1-(4-fluorophenyl)-1H-pyrazol-4-yl)pyrimidin-2-yl)amino)cyclohexyl)acetamide] | < 500
9 | CNC(=O)[C@H]1C[C@@H](Nc2ncc(Cl)c(-c3cnn(-c4ccc(F)cc4)c3)n2)C1 [Compound 122, cis-(1s,3s)-3-((5-chloro-4-(1-(4-fluorophenyl)-1H-pyrazol-4-yl)pyrimidin-2-yl)amino)-N-methylcyclobutane-1-carboxamide] | < 500
10 | CNC(=O)[C@H]1C[C@H](Nc2ncc(Cl)c(-c3cnn(-c4ccc(F)cc4)c3)n2)C1 [Compound 123, trans-(1r,3r)-3-((5-chloro-4-(1-(4-fluorophenyl)-1H-pyrazol-4-yl)pyrimidin-2-yl)amino)-N-methylcyclobutane-1-carboxamide] | 500 to 1000
11 | CC(=O)N[C@H]1CC[C@H](Nc2ncc(Cl)c(C3CCCN(C(=O)c4ccc(F)cc4)C3)n2)CC1 (stereo partly drawn) [Compound 124, trans-N-(4-((5-chloro-4-(1-(4-fluorobenzoyl)piperidin-3-yl)pyrimidin-2-yl)amino)cyclohexyl)acetamide] | < 500
12 | CC(=O)N1CCC(Nc2ncc(Cl)c(C3CCCN(C(=O)c4ccc(F)cc4)C3)n2)CC1 (stereo not drawn) [Compound 125, 1-(4-((5-chloro-4-(1-(4-fluorobenzoyl)piperidin-3-yl)pyrimidin-2-yl)amino)piperidin-1-yl)ethan-1-one] | 1000 to 5000
13 | CC(=O)N[C@H]1CC[C@H](Nc2ncc(Cl)c(C3CCN(C(=O)c4ccc(F)cc4)C3)n2)CC1 (stereo partly drawn) [Compound 126, trans-N-(4-((5-chloro-4-(1-(4-fluorobenzoyl)pyrrolidin-3-yl)pyrimidin-2-yl)amino)cyclohexyl)acetamide] | 1000 to 5000
14 | CC(=O)N1CCC(Nc2ncc(Cl)c(C3CCN(C(=O)c4ccc(F)cc4)C3)n2)CC1 (stereo not drawn) [Compound 127, 1-(4-((5-chloro-4-(1-(4-fluorobenzoyl)pyrrolidin-3-yl)pyrimidin-2-yl)amino)piperidin-1-yl)ethan-1-one] | 500 to 1000

The next lines start with the values.

Row | IC50 [nM] | Structure (SMILES)
15 | < 500 | CC(=O)N[C@H]1CC[C@H](Nc2ncc(Cl)c(-c3cccc(-n4ccccc4=O)c3)n2)CC1 [Compound 102, trans-N-((1r,4r)-4-((5-chloro-4-(3-(2-oxopyridin-1 (2H)-yl)phenyl)pyrimidin-2-yl)amino)cyclohexyl)acetamide]
16 | < 500 | CNC(=O)[C@H]1CC[C@H](Nc2ncc(Cl)c(-c3cccc(-n4ccccc4=O)c3)n2)CC1 [Compound 103, trans-(1r,4r)-4-((5-chloro-4-(3-(2-oxopyridin-1 (2H)-yl)phenyl)pyrimidin-2-yl)amino)-N-methylcyclohexane-1-carboxamide]
17 | < 500 | CNC(=O)[C@H]1CC[C@@H](Nc2ncc(Cl)c(-c3cccc(-n4ccccc4=O)c3)n2)CC1 [Compound 104, cis-(1s,4s)-4-((5-chloro-4-(3-(2-oxopyridin-1 (2H)-yl)phenyl)pyrimidin-2-yl)amino)-N-methylcyclohexane-1-carboxamide]
18 | < 500 | CC(=O)N1CCC(Nc2ncc(Cl)c(-c3ccnc(-c4ccc(F)cc4)c3)n2)CC1 [Compound 105, 1-(4-((5-chloro-4-(2-(4-fluorophenyl)pyridin-4-yl)pyrimidin-2-yl)amino)piperidin-1-yl)ethan-1-one]
19 | < 500 | CC(=O)N1CCC(Nc2ncc(Cl)c(-c3cnn(-c4ccc(=O)[nH]c4)c3)n2)CC1 [Compound 110, 5-(4-(2-((1-acetylpiperidin-4-yl)amino)-5-chloropyrimidin-4-yl)-1H-pyrazol-1-yl)pyridin-2(1H)-one]
20 | < 500 | CC(=O)N1CCC(Nc2ncc(Cl)c(-c3cnn(-c4ccc[nH]c4=O)c3)n2)CC1 [Compound 111, 3-(4-(2-((1-acetylpiperidin-4-yl)amino)-5-chloropyrimidin-4-yl)-1H-pyrazol-1-yl)pyridin-2(1H)-one]
21 | < 500 | CC(=O)N1CCC(Nc2ncc(Cl)c(-c3cccc(-c4ccc(F)cc4)n3)n2)CC1 [Compound 114, 1-(4-((5-chloro-4-(6-(4-fluorophenyl)pyridin-2-yl)pyrimidin-2-yl)amino)piperidin-1-yl)ethan-1-one]
22 | < 500 | CNC(=O)[C@H]1C[C@@H](Nc2ncc(Cl)c(-c3cccc(-c4ccc(F)cc4)n3)n2)C1 [Compound 115, cis-3-((5-chloro-4-(6-(4-fluorophenyl)pyridin-2-yl)pyrimidin-2-yl)amino)-N-methylcyclobutane-1-carboxamide]
23 | < 500 | CC(=O)N[C@H]1CC[C@H](Nc2ncc(Cl)c(-c3cnn(C4CC4)c3)n2)CC1 [Compound 116, trans-N-((1r,4r)-4-((5-chloro-4-(1-cyclopropyl-1H-pyrazol-4-yl)pyrimidin-2-yl)amino)cyclohexyl)acetamide]
24 | < 500 | CNC(=O)[C@H]1CC[C@H](Nc2ncc(Cl)c(-c3cnn(C4CC4)c3)n2)CC1 [Compound 117, trans-(1r,4r)-4-((5-chloro-4-(1-cyclopropyl-1H-pyrazol-4-yl)pyrimidin-2-yl)amino)-N-methylcyclohexane-1-carboxamide]
